What was measured:
velvetleaf = test: Test B pre-/postemergence herbicide test; type: in vivo, Abutilon theophrasti; conditions: for Velvetleaf plant response rating: postemergence; for Plant response rating, Velvetleaf: 0 = no effect, 100 = complete control
In short: (§1)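 Formulation: non-phytotoxic solvent mix with surfactant. Timing: preemergence on seed and postemergence on 2–18 cm plants, applied concurrently. Readout after 13–15 d greenhouse: visual 0–100 control rating against controls.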

soybean = test: Test C pre-/postemergence herbicide test; type: in vivo, Glycine max
In short: (§2)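 Pre/post spray; non-phytotoxic solvent + surfactant. Post-timing 1–4 leaves, 2–18 cm. Read-out: visual % control vs untreated, day 12–14, greenhouse.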

woolly cupgrass = test: Test C pre-/postemergence herbicide test; type: in vivo, Eriochloa villosa
In short: as §2

rice = test: Test B pre-/postemergence herbicide test; type: in vivo, Oryza sativa; conditions: preemergence; for Rice plant response rating (0 to 100 scale) / Plant response rating, Rice: 0 = no effect, 100 = complete control; for Plant response rating, Rice: 500 g ai/ha, visual rating
In short: as §1

morningglory = test: Test C pre-/postemergence herbicide test; type: in vivo, Ipomoea coccinea; design: key to Plant response rating, Morningglory: 0 = no effect, 100 = complete control
In short: as §2

bermudagrass = test: Test C pre-/postemergence herbicide test; type: in vivo, Cynodon dactylon; conditions: for Bermudagrass plant response rating: 500 g ai/ha
In short: as §2

goosegrass = test: Test C pre-/postemergence herbicide test; type: in vivo, Eleusine indica
In short: as §2

[1] = 125 g ai/ha, visual rating, scale 0 (no effect) to 100 (complete control)
[2] = 500 g ai/ha, visual rating, preemergence
[3] = 500 g ai/ha, scale 0 to 100, 0 is no effect, 100 is complete control
[4] = 62 g ai/ha, preemergence, scale 0 to 100
[5] = 250 g ai/ha, scale 0-100, preemergence
[6] = 500 g ai/ha, scale 0 to 100 (0 no effect, 100 complete control), visual, 12 to 14 days, preemergence
[7] = 125 g ai/ha, scale 0 (no effect) to 100 (complete control), visual, 12 to 14 days, preemergence
[8] = 62 g ai/ha, preemergence, scale 0 to 100, 0 no effect, 100 complete control
[9] = Preemergence, scale 0 to 100, 0 no effect, 100 complete control
[10] = Postemergence, 500 g ai/ha, scale 0 to 100
[11] = Postemergence, 250 g ai/ha, scale 0 to 100, 0 no effect, 100 complete control
[12] = postemergence, 125 g ai/ha, scale 0 to 100
[13] = postemergence, 62 g ai/ha, scale 0 to 100

SMILES: CCn1nc(C(C)(C)C)cc1C(=S)Nc1cc(C(=S)N(C)C)ccc1F [Compound 305]
- Velvetleaf plant response rating (velvetleaf; [1]): 20
- Plant response rating, Velvetleaf (velvetleaf; [2]): 100
- Velvetleaf plant response rating (velvetleaf; [3]): 20
- Plant response rating, Soybean (soybean; [4]): 0
- Plant response rating, Soybean (soybean; [5]): 90
- Plant response rating, Soybean (soybean; [6]): 100
- Plant response rating, Cupgrass, Woolly (woolly cupgrass; [4]): 20
- Plant response rating, Cupgrass, Woolly (woolly cupgrass; [7]): 60
- Plant response rating, Cupgrass, Woolly (woolly cupgrass; [5]): 60
- Plant response rating, Cupgrass, Woolly (woolly cupgrass; [6]): 70
- Rice plant response rating (0 to 100 scale) (rice; 125 g ai/ha): 70
- Plant response rating, Rice (rice): 80
- Plant response rating, Morningglory (morningglory; [4]): 0
- Plant response rating, Morningglory (morningglory; [7]): 0
- Plant response rating, Morningglory (morningglory; [5]): 5
- Plant response rating, Morningglory (morningglory; [6]): 10
- Plant response rating, Bermudagrass (bermudagrass; [8]): 80
- Plant response rating, Bermudagrass (bermudagrass; [7]): 85
- Plant response rating, Bermudagrass (bermudagrass; [5]): 100
- Bermudagrass plant response rating (bermudagrass; [9]): 100
- Plant response rating, Goosegrass (goosegrass; [4]): 80
- Plant response rating, Goosegrass (goosegrass; [7]): 85
- Plant response rating, Goosegrass (goosegrass; [5]): 95
- Plant response rating, Goosegrass (goosegrass; [6]): 95

SMILES: CCNC(=O)c1cccc(NC(=O)c2cc(C3(C)CC3)nn2CC)c1 [Compound 306]
- Velvetleaf plant response rating (velvetleaf; [1]): 40
- Plant response rating, Velvetleaf (velvetleaf; [2]): 100
- Velvetleaf plant response rating (velvetleaf; [3]): 60
- Plant response rating, Soybean (soybean; [4]): 5
- Plant response rating, Soybean (soybean; [5]): 15
- Plant response rating, Soybean (soybean; [6]): 40
- Plant response rating, Cupgrass, Woolly (woolly cupgrass; [4]): 5
- Plant response rating, Cupgrass, Woolly (woolly cupgrass; [7]): 15
- Plant response rating, Cupgrass, Woolly (woolly cupgrass; [5]): 30
- Plant response rating, Cupgrass, Woolly (woolly cupgrass; [6]): 50
- Rice plant response rating (0 to 100 scale) (rice; 125 g ai/ha): 60
- Plant response rating, Rice (rice): 80
- Plant response rating, Morningglory (morningglory; [4]): 5
- Plant response rating, Morningglory (morningglory; [7]): 5
- Plant response rating, Morningglory (morningglory; [5]): 10
- Plant response rating, Morningglory (morningglory; [6]): 20
- Plant response rating, Bermudagrass (bermudagrass; [8]): 40
- Plant response rating, Bermudagrass (bermudagrass; [7]): 85
- Plant response rating, Bermudagrass (bermudagrass; [5]): 90
- Bermudagrass plant response rating (bermudagrass; [9]): 100
- Plant response rating, Goosegrass (goosegrass; [4]): 50
- Plant response rating, Goosegrass (goosegrass; [7]): 70
- Plant response rating, Goosegrass (goosegrass; [5]): 100
- Plant response rating, Goosegrass (goosegrass; [6]): 100

SMILES: CCn1nc(C(C)(C)C)cc1C(=O)Nc1cccc(OC(F)F)c1 [Compound 332]
- Plant response rating (0 to 100 scale), Velvetleaf (velvetleaf; 125 g ai/ha, 0 is no effect, 100 is complete control, preemergence): 30
- Velvetleaf plant response rating (velvetleaf; [1]): 60
- Velvetleaf plant response rating (velvetleaf; [3]): 90
- Plant response rating, Soybean (soybean; [4]): 0
- Plant response rating, Soybean (soybean; [5]): 0
- Plant response rating, Soybean (soybean; [6]): 10
- Soybean plant response rating (soybean; [10]): 90
- Plant response rating, Soybean (soybean; [11]): 60
- Plant response rating, Soybean (soybean; [12]): 50
- Plant response rating, Soybean (soybean; [13]): 45
- Plant response rating, Cupgrass, Woolly (woolly cupgrass; [4]): 0
- Plant response rating, Cupgrass, Woolly (woolly cupgrass; [7]): 0
- Plant response rating, Cupgrass, Woolly (woolly cupgrass; [5]): 5
- Plant response rating, Cupgrass, Woolly (woolly cupgrass; [6]): 10
- Cupgrass, Woolly plant response rating (woolly cupgrass; [10]): 10
- Plant response rating, Cupgrass, Woolly (woolly cupgrass; [11]): 10
- Plant response rating, Cupgrass, Woolly (woolly cupgrass; [12]): 5
- Plant response rating, Cupgrass, Woolly (woolly cupgrass; [13]): 5
- Plant response rating (0 to 100 scale), Rice (rice; 125 g ai/ha, 0 is no effect, 100 is complete control): 20
- Plant response rating, Rice (rice): 40
- Plant response rating, Morningglory (morningglory; [4]): 0
- Plant response rating, Morningglory (morningglory; [7]): 0
- Plant response rating, Morningglory (morningglory; [5]): 0
- Plant response rating, Morningglory (morningglory; [6]): 0
- Plant response rating, Morningglory (morningglory; [11]): 80
- Plant response rating, Morningglory (morningglory; [12]): 10
- Plant response rating, Morningglory (morningglory; [13]): 5
- Plant response rating, Bermudagrass (bermudagrass; [8]): 80
- Plant response rating, Bermudagrass (bermudagrass; [7]): 100
- Plant response rating, Bermudagrass (bermudagrass; [5]): 100
- Bermudagrass plant response rating (bermudagrass; Postemergence, scale 0 to 100): 70
- Plant response rating, Bermudagrass (bermudagrass; [11]): 50
- Bermudagrass plant response rating (bermudagrass; [9]): 100
- Plant response rating, Bermudagrass (bermudagrass; [12]): 10
- Plant response rating, Bermudagrass (bermudagrass; [13]): 5
- Plant response rating, Goosegrass (goosegrass; [4]): 80
- Plant response rating, Goosegrass (goosegrass; [7]): 85
- Plant response rating, Goosegrass (goosegrass; [5]): 100
- Plant response rating, Goosegrass (goosegrass; [6]): 100
- Goosegrass plant response rating (goosegrass; [10]): 60
- Plant response rating, Goosegrass (goosegrass; [11]): 15
- Plant response rating, Goosegrass (goosegrass; [12]): 15
- Plant response rating, Goosegrass (goosegrass; [13]): 10

Reference: patent publication US20060069132A1, “Azolecarboxamide herbicides” (priority 2004, published 2006)
